Data on one molecule can be found in patent publication US10464904B2, “Dextrorphan-derivatives with suppressed central nervous activity” (Heinrich-Heine-Universität Düsseldorf, priority 2015, dated 2019).

This data set in a line: Rotarod test, time on rod. Format: in vivo, C57BL/6 mice. The conditions noted are these: mice, 30 minutes after i.p. injection. On the procedure:
FIG. 6: Time that C57BL/6 mice stayed on rod 30 minutes after i.p. injection of PBS without (control) or with either 50 μg g^−1 body weight DXO or 100 μg g^−1 body weight compound (4); n=5 male mice each. Significance determined by Student's t-test. *P<0.05. All values are mean±SD.
(Falling from the rotarod earlier than controls is read as motor impairment.)

Turning to `CN1CC[C@@]23CCCC[C@@H]2[C@@H]1Cc1ccc(O)cc13` [dextrorphan, (+)-17-methyl-9α,13α,14α-morphinan-3-ol], the “coordination deficits in rotarod test” value is “does”.
